Values after ≈ are worked out from the molar mass of the structure shown.
conditions: 20 °C

| SMILES | solubility |
| --- | --- |
| c1ccc2[nH]ncc2c1 | 6.99 mM (≈ 826 µg/mL) |
| c1ccc2[nH]cnc2c1 | 17 mM (≈ 2010 µg/mL) |

same assay, conditions: 25 °C

| solubility | SMILES |
| --- | --- |
| 1.06e-05 mM (≈ 0.00272 µg/mL) | Cc1cccc2c1c(C)cc1cc3ccccc3cc12 |
| 0.242 mM (≈ 31 µg/mL) | c1ccc2ccccc2c1 |
| 3e-06 mM (≈ 0.000798 µg/mL) | Cc1c2ccccc2c2ccc3cccc4ccc1c2c43 |
| 3.8 mM (≈ 498 µg/mL) | Cc1c[nH]c2ccccc12 |
| 1.89e-05 mM (≈ 0.00477 µg/mL) | c1ccc2c(c1)c1cccc3ccc4cccc2c4c31 |
| 35 mM (≈ 4520 µg/mL) | c1ccc2cnccc2c1 |
| 2.99e-05 mM (≈ 0.0085 µg/mL) | CCCCc1c2ccccc2cc2ccc3ccccc3c12 |

Second part, the compound before the results:

| SMILES | solubility |
| --- | --- |
| c1ccc2c(c1)ccc1ncccc12 | 0.439 mM (≈ 78.7 µg/mL) |
| c1ccc2c(c1)-c1ccc3ccc4cccc5cc-2c1c3c45 | 6.88e-07 mM (≈ 0.00019 µg/mL) |
| Cc1nc2ccccc2[nH]1 | 11 mM (≈ 1450 µg/mL) |
| c1ccc2nccnc2c1 | 5070 mM (≈ 660000 µg/mL) |
| c1ccc2cc3c(cc2c1)-c1cccc2cccc-3c12 | 3.17e-06 mM (≈ 0.0008 µg/mL) |

same assay, conditions: 27 °C

| SMILES | solubility |
| --- | --- |
| CCc1c2ccccc2cc2c1ccc1ccccc12 | 0.00016 mM (≈ 0.041 µg/mL) |

— the OPERA property sets (Mansouri et al. 2018)
